Columns and labels:
[1] = target: GABA post-synaptic receptor; experiment: displacement of tritiated GABA from its post-synaptic receptor (synaptic membranes, Enna and Snyder); assay type: binding; conditions: in vitro, tritiated GABA 3.6 nM, read-out: Median effective concentration (EC50) for displacement of tritiated GABA
Procedure: The products according to the invention were studied for their activity on the central nervous system. Activity on the displacement of .UPSILON.-aminobutyric acid from its post-synaptic receptor. Method: The neurochemical activity of the derivatives of the present invention on the GABA-ergic system was evaluated by measuring the displacement of .UPSILON.-aminobutyric acid (GABA) from its post-synaptic receptor. The study was carried out by the method of ENNA and […] (Brain Res. 100, 81-97, 1975). The displacement experiment was carried out in vitro in the presence of a suspension of synaptic membranes and tritiated GABA at a final concentration of 3.6 nM.

[2] = test system: spontaneous motility of mice; experiment: spontaneous motility of mice (activity test); assay type: in vivo; conditions: oral, 45 minutes after administration, recorded 10 minutes
Procedure: 1. Activity on the motility of mice
The tranquillising-sedative activity of the derivatives of the present invention was evaluated by measuring the spontaneous motility of mice by means of the activity test (J. R. BOISSIER and P. SIMON, Arch. Int. Pharmacodyn. 1965, 158, 212-221).
The equipment consisted of activity cages of the Apelab type (length=26 cm; width=21.5 cm; height=10 cm), through which two rays of light pass, acting on a photoelectric cell.
The animals were placed individually in the cages 45 minutes after oral administration of the product: each crossing of a light beam was counted by an individual counter. The scores corresponding to the movements of the animals were recorded for 10 minutes. The batches consisted of 12 mice per dose.

[3] = test system: reserpine-induced ptosis in mice; experiment: antagonism of reserpine-induced ptosis in mice; assay type: in vivo; conditions: Mus musculus, ip; intraperitoneal, with reserpine 2 mg/kg i.v., 1 hour, probit; (26-32)* on the line below
Procedure: 2. Effect on the antagonism of reserpine-induced ptosis
The antidepressive activity of the compounds was evaluated in the test for the antagonism of reserpine-induced ptosis in mice.
This study was carried out on batches of 10 female mice weighing 20±1 g. The products were administered intraperitoneally at the same time as the reserpine (2 mg/kg, administered intravenously). The mice were observed individually 1 hour after the administrations. […] The median effective dose for antagonism (ED50) was evaluated by the probit method.

[4] = test system: rotational behaviour of mice; experiment: rotational behaviour of mice after unilateral lesion of the nigro-striated passage by 6-(OH)-dopamine; assay type: in vivo, CD1 Charles River female mice; conditions: intraperitoneal, 1 hour after administration, over 2 minutes, **p 0.01
Procedure: 3. Effect on the rotational behaviour of mice after unilateral lesion of the nigro-striated passage by 6-(OH)-dopamine
The influence of the derivatives of the present invention on the central dopaminergic system was evaluated on the rotational behaviour of mice after unilateral lesion of the nigro-striated passage by 6-(OH)-dopamine. (P. PROTAIS and J. COSTENTIN, J. Pharmacol. 7(2), 251-255, 1976).
CD1 Charles River female mice, weighing 20 to 24 g, have previously undergone unilateral lesion of the striatum by the stereotaxic injection of 6-(OH)-dopamine at a dose of 8 μg per animal. One week after this operation, the product to be studied was administered intraperitoneally to grouos of 7 mice. The number of rotations was evaluated over 2 minutes, 1 hour after the administration of the product. The rotations on the same side as the lesion were counted as positive and those on the opposite side were counted as negative. The algebraic sum of the rotations for a group treated animals was compared with that for the group of control animals which had only received the vehicle (physiological serum).

Structure (SMILES) | EC50 [1] | other results
Cc1cc(-c2cccc3ccccc23)n[n+](CCCC(=O)O)c1N [Example 24, 3-Amino-2-(3-carboxypropyl)-4-methyl-6-(naphth-1-yl)-2-pyridazinium chloride] | 2900 nM | 
COc1ccc(-c2cc(C)c(N)[n+](CCCC(=O)O)n2)cc1 [Example 27] | 5000 nM | 
Cc1cc(-c2ccccc2Cl)n[n+](CCCC(=O)O)c1N [Example 29] | 3200 nM | 
Nc1ccc(-c2ccc(Cl)cc2Cl)n[n+]1CCCC(=O)O [Example 30] | 7000 nM | 
Cc1cc(-c2ccccc2)n[n+](CCC(=O)O)c1N [Example 39] | 10000 nM | 
Cc1cc(-c2ccccc2)n[n+](CCCCC(=O)O)c1N [Example 40] |  | Motility of the mice, effect ([2]; 50 mg/kg, *p 0.05): -33%; Motility of the mice, effect ([2]; 100 mg/kg, **p 0.01): -48%; ED50 [3]: 29 mg/kg; Rotational behaviour of mice, effect ([4]; 0,5 mg/kg): -50%; Rotational behaviour of mice, effect ([4]; 2 mg/kg): -62%
Nc1ccc(C2CCCCC2)n[n+]1CCCC(=O)O [Example 41] | 10500 nM | 
Cc1cc(-c2ccc(O)cc2)n[n+](CCCC(=O)O)c1N [Example 47, 3-Amino-2-(3-carboxypropyl)-4-methyl-6-(4-hydroxyphenyl)-2-pyridazinium bromide] | 3000 nM | 

Now from value to compound, other results behind:

EC50 [1] | Structure (SMILES) | other results
1250 nM | Nc1ccc(-c2ccc(Cl)cc2)n[n+]1CCCC(=O)O [Example 31] | 
700 nM | Cc1cc(-c2cccc(Cl)c2)n[n+](CCCC(=O)O)c1N [Example 33] | 
710 nM | Cc1ccc(-c2cc(C)c(N)[n+](CCCC(=O)O)n2)cc1 [Example 34] | 
2800 nM | Cc1cc(-c2ccccc2)n[n+](CCCC(=O)O)c1N [Example 37] | 
1340 nM | Nc1ccc(-c2ccccc2)n[n+]1CCCC(=O)O [Example 38] | 
2400 nM | Nc1ccc(-c2ccsc2)n[n+]1CCCC(=O)O [Example 42] | 
830 nM | Nc1ccc(-c2cccs2)n[n+]1CCCC(=O)O [Example 43] | 
